{"source": "patent US20230013823A1", "about": "“INHIBITORS OF HUMAN IMMUNODEFICIENCY VIRUS REPLICATION” (VIV HEALTHCARE UK (No. 5) LIMITED, priority 2019, published 2023)", "assay_type_in_all_cases": "cell-based", "key": {"[1]": {"test_system": "recombinant NL4-3 virus (Renilla luciferase in nef)", "test": "HIV cell culture assay (antiviral activity, luciferase readout in MT-2 cells)", "method_in_brief": "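MT-2 cells were infected for 4-5 days with 293T-derived recombinant NL4-3 reporter virus in the presence of serially diluted compound. Antiviral activity was quantified as luciferase activity using a live-cell substrate. EC50 was derived from the median effect equation.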"}, "[2]": {"test": "Compound cytotoxicity, XTT-based colorimetric assay", "details": "human; uninfected MT2 cells, day 4, XTT", "description": "(§1) Compound cytotoxicity and the corresponding CC50 values were determined using the same protocol as described in the antiviral assay except that uninfected cells were used. Cytotoxicity was assessed on day 4 in uninfected MT2 cells by using an XTT (2,3-bis[2-Methoxy-4-nitro-5-sulfophenyl]-2H-tetrazolium-5-carboxyanilide inner salt)-based colorimetric assay (Sigma-Aldrich, St Louis, Mo.)."}, "uninfected MT2 cells": {"test_system": "uninfected MT2 cells", "test": "Compound cytotoxicity, XTT-based colorimetric assay", "details": "day 4, XTT", "description": "as §1"}, "[3]": {"details": "MT=2 cells infected for 4-5 days with the recombinant virus, luciferase activity, read-out: EC50"}}, "note": "Where two headings read alike, the source gives them in different places.", "data": [{"smiles": "Cc1cc(-c2ccc3c(=O)n(-c4ccc(Cl)c5c(NS(C)(=O)=O)nn(C)c45)c([C@H](Cc4cc(F)cc(F)c4)NC(=O)Cn4nc(C(F)F)c5c4C(F)(F)[C@@H]4C[C@H]54)nc3c2)nn1CC(C)(F)F", "note": "(atropisomer, axis not shown; (P)) [Example 68, N—((S)-1-((3P)-3-(4-chloro-1-methyl-3-(methylsulfonamido)-1H-indazol-7-yl)-7-(1-(2,2-difluoropropyl)-5-methyl-1H-pyrazol-3-yl)-4-oxo-3,4-dihydroquinazolin-2-yl)-2-(3,5-difluorophenyl)ethyl)-2-((3bS,4aR)-3-(difluoromethyl)-5,5-difluoro-3b,4,4a,5-tetrahydro-1H-cyclopropa[3,4]cyclopenta[1,2-c]pyrazol-1-yl)acetamide]", "values": [{"measurement": "EC50", "setting": "[1]; Renilla, NL43", "result": 0.096, "unit": "nM"}, {"measurement": "CC50 at 4 days", "setting": "[2]", "result": "> 100", "unit": "nM"}]}, {"smiles": "CC(F)(F)Cn1ccc(-c2ccc3c(=O)n(-c4ccc(Cl)c5c(NS(=O)(=O)C6CC6)nn(CC(F)F)c45)c([C@H](Cc4cc(F)cc(F)c4)NC(=O)Cn4nc(C(F)F)c5c4C(F)(F)[C@@H]4C[C@H]54)nc3c2)n1", "note": "(atropisomer, axis not shown; (P)) [Example 69, N—((S)-1-((3P)-3-(4-chloro-3-(cyclopropanesulfonamido)-1-(2,2-difluoroethyl)-1H-indazol-7-yl)-7-(1-(2,2-difluoropropyl)-1H-pyrazol-3-yl)-4-oxo-3,4-dihydroquinazolin-2-yl)-2-(3,5-difluorophenyl)ethyl)-2-((3bS,4aR)-3-(difluoromethyl)-5,5-difluoro-3b,4,4a,5-tetrahydro-1H-cyclopropa[3,4]cyclopenta[1,2-c]pyrazol-1-yl)acetamide]", "values": [{"measurement": "EC50", "setting": "[1]; Renilla, NL43", "result": 0.16, "unit": "nM"}, {"measurement": "CC50 at 4 days", "setting": "[2]", "result": "> 100", "unit": "nM"}]}, {"smiles": "CC(C(=O)NC(Cc1cc(F)cc(F)c1)c1nc2cc(-c3ccn(CC(C)(F)F)n3)ccc2c(=O)n1-c1ccc(Cl)c2c(NS(C)(=O)=O)nn(C)c12)n1ccc(C2CC2)n1", "note": "[Example 58, (S)—N—((S)-1-((3P)-3-(4-chloro-1-methyl-3-(methylsulfonamido)-1H-indazol-7-yl)-7-(1-(2,2-difluoropropyl)-1H-pyrazol-3-yl)-4-oxo-3,4-dihydroquinazolin-2-yl)-2-(3,5-difluorophenyl)ethyl)-2-(3-cyclopropyl-1H-pyrazol-1-yl)propanamide]", "values": [{"measurement": "EC50", "setting": "[1]; [3]", "result": 0.046, "unit": "nM"}, {"measurement": "CC50", "setting": "uninfected MT2 cells", "result": "> 100", "unit": "nM"}]}, {"smiles": "Cn1nc(NS(C)(=O)=O)c2c(Cl)ccc(-n3c([C@H](Cc4cc(F)cc(F)c4)NC(=O)Cn4nc(C(F)(F)F)c5c4C(F)(F)[C@@H]4C[C@H]54)nc4cc(-c5ccn(CC(F)(F)C(F)F)n5)ccc4c3=O)c21", "note": "[Example 59, N—((S)-1-((3P)-3-(4-chloro-1-methyl-3-(methylsulfonamido)-1H-indazol-7-yl)-4-oxo-7-(1-(2,2,3,3-tetrafluoropropyl)-1H-pyrazol-3-yl)-3,4-dihydroquinazolin-2-yl)-2-(3,5-difluorophenyl)ethyl)-2-((3bS,4aR)-5,5-difluoro-3-(trifluoromethyl)-3b,4,4a,5-tetrahydro-1H-cyclopropa[3,4]cyclopenta[1,2-c]pyrazol-1-yl)acetamide]", "values": [{"measurement": "EC50", "setting": "[1]; [3]", "result": 0.11, "unit": "nM"}, {"measurement": "CC50", "setting": "uninfected MT2 cells", "result": "> 100", "unit": "nM"}]}, {"smiles": "CS(=O)(=O)Nc1nn(CCCF)c2c(-n3c([C@H](Cc4cc(F)cc(F)c4)NC(=O)Cn4nc(C(F)F)c5c4C(F)(F)[C@@H]4C[C@H]54)nc4cc(-c5ccnn5CC(F)(F)C(F)F)ccc4c3=O)ccc(Cl)c12", "note": "[Example 62, N—((S)-1-((3P)-3-(4-chloro-1-(3-fluoropropyl)-3-(methylsulfonamido)-1H-indazol-7-yl)-4-oxo-7-(1-(2,2,3,3-tetrafluoropropyl)-1H-pyrazol-5-yl)-3,4-dihydroquinazolin-2-yl)-2-(3,5-difluorophenyl)ethyl)-2-((3bS,4aR)-3-(difluoromethyl)-5,5-difluoro-3b,4,4a,5-tetrahydro-1H-cyclopropa[3,4]cyclopenta[1,2-c]pyrazol-1-yl)acetamide]", "values": [{"measurement": "EC50", "setting": "[1]; Renilla, NL43", "result": 0.074, "unit": "nM"}, {"measurement": "CC50 at 4 days", "setting": "[2]", "result": "> 100", "unit": "nM"}]}, {"smiles": "CS(=O)(=O)Nc1nn(CCCF)c2c(-n3c([C@H](Cc4cc(F)cc(F)c4)NC(=O)Cn4nc(C(F)F)c5c4C(F)(F)[C@@H]4C[C@H]54)nc4cc(-c5ccn(CC(F)(F)C(F)F)n5)ccc4c3=O)ccc(Cl)c12", "note": "[Example 67, N—((S)-1-((3P)-3-(4-chloro-1-(3-fluoropropyl)-3-(methylsulfonamido)-1H-indazol-7-yl)-4-oxo-7-(1-(2,2,3,3-tetrafluoropropyl)-1H-pyrazol-3-yl)-3,4-dihydroquinazolin-2-yl)-2-(3,5-difluorophenyl)ethyl)-2-((3bS,4aR)-3-(difluoromethyl)-5,5-difluoro-3b,4,4a,5-tetrahydro-1H-cyclopropa[3,4]cyclopenta[1,2-c]pyrazol-1-yl)acetamide]", "values": [{"measurement": "EC50", "setting": "[1]; Renilla, NL43", "result": 0.049, "unit": "nM"}, {"measurement": "CC50 at 4 days", "setting": "[2]", "result": "> 100", "unit": "nM"}]}]}
